#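 Following 48 hours of exposure in 96-well plates, responses at five concentrations were used to interpolate endpoints linearly. At the GI50, growth is halved.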 The source made the active and inactive calls. Rule as the data show it: active = GI50 up to about 1.1 µM and inactive = higher.
# What was measured:
# Experiment in all cases: DTP human tumour cell line panel, 48 h
# M19-MEL = system: M19-MEL
# LXFL 529 = system: LXFL 529
# DMS-114 = system: DMS-114
# HOP-18 = system: HOP-18
# KM-20L2 = system: KM-20L2
# DMS-273 = system: DMS-273
# SNB-78 = system: SNB-78
# XF498 = system: XF498
# RXF 631 = system: RXF 631
SMILES,GI50 (M19-MEL),GI50 (LXFL 529),GI50 (DMS-114),GI50 (HOP-18),GI50 (KM-20L2),GI50 (DMS-273),GI50 (SNB-78),GI50 (XF498),GI50 (RXF 631)
O=S(=O)(c1ccccc1)n1cnc(CCc2ccccc2)n1,> 100 µM (inactive),> 100 µM (inactive),> 100 µM (inactive),> 100 µM (inactive),> 100 µM (inactive),> 100 µM (inactive),> 100 µM (inactive),,
O=C(CC1(O)C(=O)Nc2c(Cl)cc(Cl)cc21)c1ccc([N+](=O)[O-])cc1 (centres undefined),10.3 µM (inactive),25.6 µM (inactive),23.8 µM (inactive),> 100 µM (inactive),> 78 µM (inactive),> 62.4 µM (inactive),> 47.8 µM (inactive),56.5 µM (inactive),
O=c1cc2ccccc2nn1-c1ccccc1Cl,> 100 µM (inactive),,48.3 µM (inactive),> 100 µM (inactive),> 100 µM (inactive),78.5 µM (inactive),> 100 µM (inactive),27 µM (inactive),
O=C(c1ccccc1)c1c(-c2ccccc2)sc2nc3ccccc3nc12,> 100 µM (inactive),,> 100 µM (inactive),,> 100 µM (inactive),> 100 µM (inactive),74 µM (inactive),> 100 µM (inactive),
Cc1ccc(C(=O)/C=C/c2cccc([N+](=O)[O-])c2)cc1,> 44.6 µM (inactive),37.8 µM (inactive),46.5 µM (inactive),> 100 µM (inactive),36.6 µM (inactive),> 83.4 µM (inactive),> 100 µM (inactive),,> 73.8 µM (inactive)
COC1=CC(=O)c2c(cc3c(c2O)-c2c(OC)cc4cc5c(c(O)c4c2OC(=O)CC(C)(O)C3)C(=O)CC(C)(O)C5)C1=O (centres undefined),0.379 µM (active),1.16 µM (inactive),1.69 µM (inactive),1.3 µM (inactive),1.63 µM (inactive),1.64 µM (inactive),1.85 µM (inactive),1.37 µM (inactive),
CCCN1C(=O)C/C(=C\C(C)=O)Nc2ccccc21,> 100 µM (inactive),> 100 µM (inactive),71.4 µM (inactive),,,> 100 µM (inactive),80.2 µM (inactive),> 100 µM (inactive),
COC(=O)C(=O)C(C#N)c1c(Cl)cccc1Cl (centres undefined),> 100 µM (inactive),> 100 µM (inactive),> 100 µM (inactive),,> 100 µM (inactive),> 100 µM (inactive),> 100 µM (inactive),> 100 µM (inactive),> 100 µM (inactive)
N#C/N=C1\NCCC(=O)N1CCc1c[nH]c2ccccc12,> 100 µM (inactive),> 100 µM (inactive),> 100 µM (inactive),,,> 100 µM (inactive),> 100 µM (inactive),> 100 µM (inactive),
COc1ccccc1/C=C(\C#N)c1ccccc1,32.6 µM (inactive),36.1 µM (inactive),16.5 µM (inactive),38.5 µM (inactive),23.6 µM (inactive),16.8 µM (inactive),31.2 µM (inactive),,
CN(C)CCCCC1CCN(CC(=O)N2c3ccccc3NC(=O)c3ccccc32)CC1,> 100 µM (inactive),> 100 µM (inactive),> 100 µM (inactive),,,> 100 µM (inactive),> 100 µM (inactive),> 100 µM (inactive),> 100 µM (inactive)
O=C1C2Cc3ccccc3CN2C(=O)N1CCN1CCOCC1 (centres undefined),> 100 µM (inactive),> 100 µM (inactive),> 100 µM (inactive),,> 100 µM (inactive),> 100 µM (inactive),,,> 100 µM (inactive)
N=C(N)NS(=O)(=O)c1ccc(Nc2c3ccccc3nc3c(C(=O)Nc4ccc(S(N)(=O)=O)cc4)cccc23)cc1,> 100 µM (inactive),26.8 µM (inactive),45 µM (inactive),> 100 µM (inactive),> 100 µM (inactive),> 100 µM (inactive),76.4 µM (inactive),25.3 µM (inactive),
CC1=Nc2c(O)nc(S)nc2NC(c2c(Cl)cccc2Cl)C1 (centres undefined),1.48 µM (inactive),2.96 µM (inactive),3.05 µM (inactive),15.2 µM (inactive),4.23 µM (inactive),1.95 µM (inactive),4.43 µM (inactive),3.1 µM (inactive),5.75 µM (inactive)
O=C(OC1CCC2OOC1O2)c1ccc([N+](=O)[O-])cc1 (centres undefined),> 100 µM (inactive),,> 100 µM (inactive),,> 100 µM (inactive),> 100 µM (inactive),> 100 µM (inactive),,
Cc1ccc(S(=O)(=O)SC(C)(C)C)cc1,33.8 µM (inactive),32.7 µM (inactive),16.9 µM (inactive),> 100 µM (inactive),,19.8 µM (inactive),51.2 µM (inactive),15.6 µM (inactive),> 100 µM (inactive)
CNC(=O)ON(C(C)=O)C(=O)NC [CARACEMIDE],112 µM (inactive),,31.1 µM (inactive),97.7 µM (inactive),104 µM (inactive),75.2 µM (inactive),133 µM (inactive),41.3 µM (inactive),
O=C1/C(=N\O)S(=O)(=O)c2ccccc21,> 100 µM (inactive),> 100 µM (inactive),> 100 µM (inactive),> 100 µM (inactive),59.2 µM (inactive),> 100 µM (inactive),> 100 µM (inactive),,> 100 µM (inactive)
CCC(/C=C/c1ccccc1)=N\N=C(\C=C\c1ccccc1)CC,> 100 µM (inactive),> 100 µM (inactive),,,> 100 µM (inactive),> 100 µM (inactive),> 100 µM (inactive),> 100 µM (inactive),
CN(C)CCCNc1ccnc2c([N+](=O)[O-])cccc12,2.44 µM (inactive),,2.48 µM (inactive),,4.36 µM (inactive),14.7 µM (inactive),31.2 µM (inactive),14.8 µM (inactive),
O=c1cccccc1NCCCCCCCCNc1cccccc1=O,> 100 µM (inactive),47.9 µM (inactive),1.77 µM (inactive),,> 100 µM (inactive),55.7 µM (inactive),> 100 µM (inactive),23 µM (inactive),1.74 µM (inactive)
